The record followed here is article PMC3375280 (PLoS ONE, 2012).

Usually Kd stands for the equilibrium constant for the complex coming apart.

Positions count from the first letter of the chain named.

Assay [1] addresses T1, AT1 S109A mutant receptor (Rattus norvegicus, UniProt P25095, S109A).
T1 construct: expressed in transfected cells; host or cells: COS1
T1 sequence (P25095 1-359 S109A): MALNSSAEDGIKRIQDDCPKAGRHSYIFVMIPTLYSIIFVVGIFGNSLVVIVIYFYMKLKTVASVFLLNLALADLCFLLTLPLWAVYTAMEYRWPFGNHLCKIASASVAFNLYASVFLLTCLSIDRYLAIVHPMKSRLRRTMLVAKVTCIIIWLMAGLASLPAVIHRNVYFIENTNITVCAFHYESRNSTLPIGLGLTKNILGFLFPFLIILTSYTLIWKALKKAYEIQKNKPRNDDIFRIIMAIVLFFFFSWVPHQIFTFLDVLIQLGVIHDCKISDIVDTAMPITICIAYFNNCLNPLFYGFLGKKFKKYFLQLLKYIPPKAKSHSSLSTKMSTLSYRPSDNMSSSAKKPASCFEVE
Description: competition binding, S109A mutant. The note with it: for Kd ratio relative to WT (in parentheses): S109A / WT; for Kd: S109A, COS1 membranes, read-out: Binding affinity (Kd). The method, then: (§1) The Kd and Bmax values of receptor binding were determined by ^125I-[Sar^1, Ile^8] […] Membranes expressing the WT or mutant AT1 receptors were incubated with 100 pM ^125I-[Sar^1, Ile^8] […] The binding reaction was terminated by filtering the incubation mixture through Whatman GF/C glass filters, and the residues were extensively washed further with binding buffer. The bound ligand fraction was determined from the counts per minute (cpm) remaining on the membrane. Binding kinetics values were determined as previously described.

The target of assay [2] is T2, AT1 C76A/V116C/C289A mutant receptor (Rattus norvegicus, UniProt P25095, C289A/C76A/V116C).
T2 construct: expressed in transfected cells; host or cells: COS1 cells (membranes)
T2 sequence (P25095 1-359 C76A/V116C/C289A): T1 sequence (P25095 1-359 S109A) with C76A, A109S, V116C, C289A
The assay is described as follows: competition binding, C76A/V116C/C289A mutant. The note with it: for Kd ratio relative to WT (in parentheses): C76A/V116C/C289A / WT; for Kd: C76A/V116C/C289A, COS1 membranes, read-out: Binding affinity (Kd). The procedure:
as §1

Assay [3] addresses T3, AT1 C76A/N111C/C289A mutant receptor (Rattus norvegicus, UniProt P25095, C289A/C76A/N111C).
T3 construct: expressed in transfected cells; host or cells: COS1
T3 sequence (P25095 1-359 C76A/N111C/C289A): T1 sequence (P25095 1-359 S109A) with C76A, A109S, N111C, C289A
The assay is described as follows: competition binding, C76A/N111C/C289A mutant. The note with it: for Kd ratio relative to WT (in parentheses): C76A/N111C/C289A / WT; for Kd: C76A/N111C/C289A, COS1 membranes, read-out: Binding affinity (Kd). The procedure:
as §1

For assay [4], the target named is T4, AT1 C76A/V108C/C289A mutant receptor (Rattus norvegicus, UniProt P25095, C289A/C76A/V108C).
T4 construct: expressed in transfected cells; host or cells: COS1
T4 sequence (P25095 1-359 C76A/V108C/C289A): T1 sequence (P25095 1-359 S109A) with C76A, V108C, A109S, C289A
The assay is described as follows: competition binding, C76A/V108C/C289A mutant. The following applies: for Kd ratio relative to WT (in parentheses): C76A/V108C/C289A / WT; for Kd: C76A/V108C/C289A, COS1 membranes, read-out: Binding affinity (Kd). The method, then: as §1

The target in assay [5] is T5, AT1 C76A/S109C/C289A mutant receptor (Rattus norvegicus, UniProt P25095, C289A/C76A/S109C).
T5 construct: expressed in transfected cells; host or cells: COS1
T5 sequence (P25095 1-359 C76A/S109C/C289A): T1 sequence (P25095 1-359 S109A) with C76A, A109C, C289A
Description: competition binding, C76A/S109C/C289A mutant. The following applies: for Kd ratio relative to WT (in parentheses): C76A/S109C/C289A / WT; for Kd: C76A/S109C/C289A, COS1 membranes, read-out: Binding affinity (Kd). The method, then: as §1

In assay [6] the target is T6, AT1 Y113A mutant receptor (Rattus norvegicus, UniProt P25095, Y113A).
T6 construct: expressed in transfected cells; host or cells: COS1
T6 sequence (P25095 1-359 Y113A): T1 sequence (P25095 1-359 S109A) with A109S, Y113A
Description: competition binding, Y113A mutant. The note with it: for Kd ratio relative to WT (in parentheses): Y113A / WT; for Kd: Y113A, COS1 membranes, read-out: Binding affinity (Kd). The method, then:
as §1

For `CCCc1nc(C(C)(C)O)c(C(N)=O)n1Cc1ccc(-c2cc(Cc3ccc(O)cc3)ccc2-c2nnn[nH]2)cc1` [R794847], the “Kd ratio relative to WT (in parentheses)” value in assay [1] is reported as 0.7 fold; in assay [2], 0.8 fold; in assay [3], 3.8 fold; in assay [4], 8 fold; in assay [5] it was 2.0 fold; in assay [6], 38 fold. The Kd in assay [1] worked out at 34 ± 11 nM; in assay [2], 39 ± 3 nM; in assay [3] it was 180 ± 94 nM; in assay [4] it was 391 ± 54 nM; in assay [5], 96 ± 18 nM; in assay [6], 1800 ± 205 nM.
With `CCCc1nc(C(C)(C)O)c(C(=O)O)n1Cc1ccc(-c2ccccc2-c2nnn[nH]2)cc1` [Olmesartan, olmesartan, reference compound], the “Kd ratio relative to WT (in parentheses)” value came to 1.1 fold in assay [1]; 2.7 fold in assay [2]; 5.2 fold in assay [3]; 14 fold in assay [4]; 13 fold in assay [5]; 5.2 fold in assay [6]. For the same molecule, the dissociation constant Kd in assay [1] was determined as 2.5 ± 0.8 nM; in assay [2] it was 6.2 ± 1.7 nM; in assay [3], 12 ± 4 nM; in assay [4], 32 ± 1 nM; in assay [5], 29 ± 5 nM; in assay [6], 12 ± 3 nM.
In the case of `CCCc1nc(C(C)(C)O)c(C(N)=O)n1Cc1ccc(-c2ccccc2-c2nnn[nH]2)cc1` [R239470], the “Kd ratio relative to WT (in parentheses)” value was determined as 1.1 fold in assay [1]; 3.1 fold in assay [2]; 6.8 fold in assay [3]; 13 fold in assay [4]; 14 fold in assay [5]; 183 fold in assay [6]. Moreover, the Kd in assay [1] is 0.9 ± 0.2 nM; in assay [2] it was 2.5 ± 1 nM; in assay [3] it was 5.4 ± 3 nM; in assay [4] it was 10 ± 2 nM; in assay [5] it was 11 ± 3 nM; in assay [6], 146 ± 15 nM.
